Data reported in patent US8148405B2, “Salt I” (AstraZeneca AB, priority 2005, dated 2012).
“And” between values parts separate entries of the source, which are not always exact repeats. Identical values can stand only once. Counter-ions that a name gives are not always drawn. Marks after values point to notes of the source that are not given here.

Key:
[1] = Hygroscopicity determination (vapor sorption, SGA-100); assay type: physicochemical; conditions: room temperature (25° C.)
Procedure: The weight change of a test sample at room temperature (25° C.) and at 80% relative humidity (RH) were investigated by recording adsorption-desorption isotherms using a symmetric vapor-sorption analyser SGA-100 (VTI Corporation) using different methods, the main features being: a single sorption/desorption cycle from 0 to 90% RH in 10% RH steps with a dm/dt trigger value of 0.002%, (dm/dt=change in mass with time—when the balance stability is within this value the next step is automatically started, however, if those conditions are not achieved there is a default maximum time for each step of 6 hours). Approximately 2 to 10 mg of the test sample was placed in a sample holder and exposed to different relative humidities.

[2] = Estimated solubility of the salt in organic solvents; assay type: physicochemical; conditions: for solubility: organic solvent or mixture
Procedure: (b) The Form B salt described in (a) above was also prepared by dissolving, in a vial, 20% w of a sample of the benzoate salt prepared by the method of Example 1(b) (Form A) in a solvent such as methanol (>20 mg/ml), ethanol (>20 mg/ml), n-propanol (>20 mg/ml), isopropanol (8.5 mg/ml) or acetone (9.6 mg/ml). The figures in brackets indicate the estimated solubility of the salt in these solvents. The vial was then sealed and the suspension was homogenised at ambient temperature (20° C.) using a magnet. Stirring and temperature were maintained for a period of at least 7 days after which time a sample of the material obtained was dried and tested by XRPD. XRPD confirmed that there had been complete transformation of Form A to Form B.

[3] = Evaluation of the deaggregation properties of micronised salt (TSI Aerodynamic Particle Sizer); assay type: physicochemical
Procedure: This screening study was intended to give some estimation regarding the deaggregation properties of anhydrous N-{2-[((2S)-3-{[1-(4-chlorobenzyl)piperidin-4-yl]amino}-2-hydroxy-2-methylpropyl)oxy]-4-hydroxyphenyl}acetamide benzoate salt, form B (referred to in the remainder of this example as “Form B salt”. The results were compared to the results from an established product powder, the Pulmicort® Turbuhaler® formulation, which was tested identically.
Form B salt was micronised in order to obtain a particle size of less than […]. Pulmicort® Turbuhaler® powder was emptied from the Pulmicort® Turbuhaler®. The latter formulation consists of micronised Budesonide powder that is spheronised into small pellets. The micronization of the Form B salt was performed in a spiral jet mill. Within the inner annular space of the jet mill there is a spiral classification. Fine particles will pass through this classification zone and out through a cyclone at the bottom of the mill. The fraction captured in the exhaust filter of the mill was discarded.
For deaggregation of the powders (both for Pulmicort® Turbuhaler® formulation and the Form B salt), the powders were scrape filled into a simple inhaler device comprising an L-shaped cylindrical channel, comprising a vertical component and a horizontal component.
A Turbuhaler® mouthpiece was fastened to the end of the horizontal component to promote deaggregation of the powder, and the powder to be tested was placed via the vertical channel into the bend of the channel (i.e. the corner of the L-shaped channel). An airflow pulse (see below) then activated the airflow through the vertical component of the channel, entraining the powder located in the bend, and the air-particle mixture is thereafter moved through the horizontal component of the cylinder and finally passed through the Turbuhaler® mouthpiece.
After leaving the Turbuhaler® mouthpiece, the aerosol was transferred to a TSI Aerodynamic Particle Sizer (APS®) with Impactor Inlet 3306 set-up where the aerosol cloud was analysed for its aerodynamic properties and fine particle fraction. The APS set-up was arranged in such a way as to allow withdrawal of doses at optional airflows, followed by counting and aerodynamic classification (ca. 0.3-20 μm) of the particles on a particle by particle basis. Briefly, between the USP throat and the 3306 Impacter Inlet, a three-way pneumatic valve and an NGI pre-separator was positioned. In addition, a tube to a vacuum source via a timer-controlled solenoid valve (Triggor Box) was positioned between the valve and the pre-separator in a T-joint fashion. A short airflow pulse is then generated through the inhaler, USP throat, and pre-separator using the Triggor box. After the end of the air pulse, the pneumatic valve switches so that the aerosol cloud in the pre-separator is drawn into the APS via the 3306 Impacter Inlet for aerodynamic assessment.
Each dose was withdrawn with an airflow pulse of duration 0.4 seconds with maximum airflow at 60 lpm, followed by sampling into the APS instrument. The sampling time in the APS software was set to 20 seconds. The result parameters from the APS were mass median aerodynamic diameter (MMAD), geometric standard deviation (GSD), and a measure of the dose amount (particle counting data converted to mass data using particle density=1) called fine particle dose (FPD).
The two first doses (for each formulation) were released and measured gravimetrically. The mean value of these gravimetric doses, denoted “metered doses” or loaded dose, were used for normalisation of the (FPD), which gives a measure of the fine particle fraction (FPF). The FPF can therefore be used for direct comparison between the two powder formulations (for the instrument set up used). The limit for fine particles was set to an aerodynamic particle size of 7 μm. Seven and five doses were then analysed with the APS for Pulmicort® Turbuhaler® formulation and for Form B salt, respectively. […]

human CCR1 = target: T1, human CCR1 (Homo sapiens, UniProt P32246); experiment: Human CCR1 binding assay ([125I] MIP-1α displacement, HEK-CCR1 membranes)
T1 construct: expressed in transfected cells; membranes
T1 sequence (P32246 1-355): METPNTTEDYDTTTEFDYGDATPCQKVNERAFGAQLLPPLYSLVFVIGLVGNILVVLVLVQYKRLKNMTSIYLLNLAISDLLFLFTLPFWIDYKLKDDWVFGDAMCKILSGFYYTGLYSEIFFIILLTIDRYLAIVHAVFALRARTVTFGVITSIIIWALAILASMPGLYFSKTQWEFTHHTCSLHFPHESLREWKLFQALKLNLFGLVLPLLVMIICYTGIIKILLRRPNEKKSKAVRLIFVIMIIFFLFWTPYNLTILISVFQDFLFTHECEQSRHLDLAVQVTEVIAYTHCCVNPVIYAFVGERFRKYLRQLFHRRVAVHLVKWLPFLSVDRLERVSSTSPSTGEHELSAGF
Procedure: HEK293 cells, from ECACC, stably expressing recombinant human CCR1 (HEK-CCR1) were used to prepare cell membranes containing CCR1. […] The concentration of membranes of each batch was adjusted to 10% specific binding of 33 pM [^125I] MIP-1α.
100 μL of HEK-CCR1 membranes diluted in assay buffer pH 7.4 (137 mM NaCl (Merck, Cat No 1.06404), 5.7 mM Glucose (Sigma, Cat No G5400), 2.7 mM KCl (Sigma, Cat No P-9333), 0.36 mM NaH2PO4×H2O (Merck, Cat No 1.06346), 10 mM HEPES (Sigma, Cat No H3375), 0.1% (w/v) Gelatine (Sigma, Cat No G2625)) with the addition of 17500 units/L Bacitracin (Sigma, Cat No B 1025) were added to each well of the 96 well filter plate (0.45 μm opaque Millipore cat no MHVB N4550). […] 12 μl assay buffer with 10% DMSO was added to certain wells (without compound) to detect maximal binding (B0).
12 μL [^125I] MIP-1α, diluted in assay buffer to a final concentration in the wells of 33 pM, was added to all wells. The plates with lid were then incubated for 1.5 hrs at room temperature. After incubation the wells were emptied by vacuum filtration (MultiScreen Resist Vacuum Manifold system, Millipore) and washed once with 200 μl assay buffer. After the wash, all wells received an addition of 50 μL of scintillation fluid (OptiPhase “Supermix”, Wallac Oy, Turko, Finland). Bound [^125I] MIP-1α was measured using a Wallac Trilux 1450 MicroBeta counter. […]

## CC(=O)Nc1ccc(O)cc1OC[C@@](C)(O)CNC1CCN(Cc2ccc(Cl)cc2)CC1 [Form A, N-{2-[((2S)-3-{[1-(4-chlorobenzyl)piperidin-4-yl]amino}-2-hydroxy-2-methylpropyl)oxy]-4-hydroxyphenyl}acetamide benzoate]
[1]; listed as Anhydrous Form A
  Water Uptake (% w/w) at 80% RH: <2 % w/w
[2]; acetone
  estimated solubility: 9.6 mg/mL
[2]; ethanol
  solubility: > 20 mg/mL
[2]; isopropanol
  estimated solubility: 8.5 mg/mL
[2]; methanol
  solubility: > 20 mg/mL
[2]; n-propanol
  solubility: > 20 mg/mL

## CC(=O)Nc1ccc(O)cc1OC[C@@](C)(O)CNC1CCN(Cc2ccc(Cl)cc2)CC1 [Form B salt, N-{2-[((2S)-3-{[1-(4-chlorobenzyl)piperidin-4-yl]amino}-2-hydroxy-2-methylpropyl)oxy]-4-hydroxyphenyl}acetamide benzoate]
[1]; listed as Anhydrous Form B
  Water Uptake (% w/w) at 80% RH: <0.8 % w/w
[3]
  Normalized FPF (mean FPF Form B salt/mean FPF Pulmicort Turbuhaler formulation): 164%^a
[3]; in words
  FPF compared with Pulmicort Turbuhaler formulation: generally higher
  de-aggregation properties (conclusion): advantageous de-aggregation properties
[3]; mean of doses
  FPD (fine particle dose): 182 µg
  MMAD (mass median aerodynamic diameter): 2.16 μm
[3]; single dose, airflow pulse 0.4 seconds, 60 lpm
  MMAD (mass median aerodynamic diameter): 2.28 μm and 2.12 μm and 2.20 μm and 2.10 μm and 2.11 μm

## CC(=O)Nc1ccc(O)cc1OC[C@@](C)(O)CNC1CCN(Cc2ccc(Cl)cc2)CC1 [N-{2-[((2S)-3-{[1-(4-chlorobenzyl)piperidin-4-yl]amino}-2-hydroxy-2-methylpropyl)oxy]-4-hydroxyphenyl}acetamide ditrifluoroacetate]
Human CCR1
  IC50: < 50 nM
